Reference: article PMC6272684, “Synthesis, Antiproliferative and Antifungal Activities of 1,2,3-Triazole-Substituted Carnosic Acid and Carnosol Derivatives” (Molecules, 2015)

Tests used:
[1] = system: C. albicans ATCC 10231; test: Antifungal broth microdilution (CLSI M27-A3), growth inhibition; assay type: cell-based, Candida albicans; conditions: for MIC50 (minimum concentration to inhibit 50% of fungal growth), C. albicans: C. albicans ATCC 10231
How it was run: (§1)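 Yeast inocula (1–5 × 10^3 CFU/mL) were tested by CLSI M27-A3 broth microdilution in RPMI-1640 at 250–3.9 μg∙mL^−1 (DMSO ≤1%) for 48 h at 30 °C in the dark. Growth was read at OD405, and % inhibition was calculated against growth and sterility controls in triplicate. MIC100 is total inhibition; MIC50 is 50% inhibition.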

[2] = system: C. neoformans ATCC 32264; test: as above; assay type: cell-based, Cryptococcus neoformans; conditions: for MIC50 (minimum concentration to inhibit 50% of fungal growth), C. neoformans: C. neoformans ATCC 32264
How it was run: as §1

[3] = system: bladder carcinoma (J82) cells; test: Antiproliferative assay (MTT reduction, 3 days); assay type: cell-based, human; conditions: J82 cells, 3 days, MTT; >100 µM considered inactive; read-out: IC50 ± SD, J82
Procedure: (§2) The antiproliferative activity towards the following human cell lines was determined: normal lung fibroblasts (MRC-5), gastric epithelial adenocarcinoma (AGS), lung cancer (SK-MES-1) and bladder carcinoma (J82) cells. […] When comparing the pairs 3–4, 5–6 and 7–8 differing in one CH2 unit in the linker, the activity decreased with linker length.
(§3) All human cell lines used in this work were purchased from the American Type Culture Collection (ATCC, Manasas, VA, USA). Normal lung MRC-5 fibroblasts (CCL-171), SK-MES-1 lung cancer cells (HTB-58) and J82 bladder carcinoma cells (HTB-1) were grown as monolayers in minimum essential Eagle medium (MEM) with Earles’s salts, 2 mM L-glutamine and 1.5 g∙L^−1 sodium bicarbonate. Gastric adenocarcinoma AGS cells (CRL-1739) were grown as monolayers in Ham F-12 medium containing 1 mM L-glutamine and 1.5 g∙L^−1 sodium bicarbonate. All media were supplemented with 10% heat-inactivated FBS, 100 IU∙mL^−1 penicillin and 100 µg∙mL^−1 streptomycin. Cells were grown in a humidified incubator with 5% CO2 in air at 37 °C. For the antiproliferative assay, cells were plated at a density of 5 × 10^4 cells∙mL^−1. Cells were seeded in 96-well plates (100 µL∙well^−1). One day after seeding, cells were treated with medium containing the compounds at concentrations ranging from 0 up to 100 µM during 3 days. The compounds were dissolved in DMSO (1% final concentration) and complete medium. Untreated cells (medium containing 1% DMSO) were used as 100% viability controls. […] Each concentration was tested in sextuplicate and experiments were repeated 2 times. Cell viability was determined by means of the MTT reduction assay at the end of the incubation with the products. The results were transformed to percentage of controls and the IC50 value was obtained adjusting the dose-response curve to a sigmoidal model. The software used was OriginPro 8.1 [30].

[4] = system: gastric epithelial adenocarcinoma (AGS) cells; test: Antiproliferative assay (MTT reduction, 3 days); assay type: cell-based, human; conditions: >100 µM considered inactive; for IC50: read-out: IC50 ± SD, AGS
Procedure: as §2, §3

[5] = system: lung cancer (SK-MES-1) cells; test: Antiproliferative assay (MTT reduction, 3 days); assay type: cell-based, human; conditions: >100 µM considered inactive, read-out: IC50 ± SD, SK-MES-1
Procedure: (§4) The antiproliferative activity towards the following human cell lines was determined: normal lung fibroblasts (MRC-5), gastric epithelial adenocarcinoma (AGS), lung cancer (SK-MES-1) and bladder carcinoma (J82) cells.
as §3, with “Normal lung MRC-5 fibroblasts (CCL-171), SK-MES-1 lung cancer cells (HTB-58) and J82 bladder carcinoma cells (HTB-1) were grown as monolayers in minimum essential Eagle medium (MEM) with Earles’s salts, 2 mM L-glutamine and 1.5 g∙L^−1 sodium bicarbonate. Gastric adenocarcinoma AGS cells (CRL-1739) were grown as monolayers in Ham F-12 medium containing 1 mM L-glutamine and 1.5 g∙L^−1 sodium bicarbonate.” left out, “The results were transformed to percentage of controls and the IC50 value was obtained adjusting the dose-response curve to a sigmoidal model.” left out

[6] = system: normal lung fibroblasts (MRC-5); test: Antiproliferative assay (MTT reduction, 3 days); assay type: cell-based, human; conditions: MRC-5 normal fibroblasts, >100 µM considered inactive; for IC50: read-out: IC50 ± SD, MRC-5
Procedure: as §4
as §3, with “Normal lung MRC-5 fibroblasts (CCL-171), SK-MES-1 lung cancer cells (HTB-58) and J82 bladder carcinoma cells (HTB-1) were grown as monolayers in minimum essential Eagle medium (MEM) with Earles’s salts, 2 mM L-glutamine and 1.5 g∙L^−1 sodium bicarbonate. Gastric adenocarcinoma AGS cells (CRL-1739) were grown as monolayers in Ham F-12 medium containing 1 mM L-glutamine and 1.5 g∙L^−1 sodium bicarbonate.” left out, “The results were transformed to percentage of controls and the IC50 value was obtained adjusting the dose-response curve to a sigmoidal model.” left out

Structure (SMILES) | Inhibition percentage against C. albicans ATCC 10231 ([1]; 3.9 μg∙mL^−1, 48 h) [%] | Inhibition percentage against C. albicans ATCC 10231 ([1]; 7.8 μg∙mL^−1, 48 h) [%] | Inhibition percentage against C. albicans ATCC 10231 ([1]; 15.6 μg∙mL^−1, 48 h) [%] | Inhibition percentage against C. albicans ATCC 10231 ([1]; 62.5 μg∙mL^−1, 48 h) [%] | Inhibition percentage against C. albicans ATCC 10231 ([1]; 125 μg∙mL^−1, 48 h) [%] | Inhibition percentage against C. albicans ATCC 10231 ([1]; 250 μg∙mL^−1, 48 h) [%] | Inhibition percentage against C. albicans ATCC 10231 ([1]; 31. μg∙mL^−1, 48 h) [%] | MIC50 (minimum concentration to inhibit 50% of fungal growth), C. albicans [1] [µg/mL] | Inhibition percentage against C. neoformans ATCC 32264 ([2]; 3.9 μg∙mL^−1, 48 h) [%] | Inhibition percentage against C. neoformans ATCC 32264 ([2]; 7.8 μg∙mL^−1, 48 h) [%] | Inhibition percentage against C. neoformans ATCC 32264 ([2]; 15.6 μg∙mL^−1, 48 h) [%] | Inhibition percentage against C. neoformans ATCC 32264 ([2]; 31.2 μg∙mL^−1, 48 h) [%] | Inhibition percentage against C. neoformans ATCC 32264 ([2]; 62.5 μg∙mL^−1, 48 h) [%] | Inhibition percentage against C. neoformans ATCC 32264 ([2]; 125 μg∙mL^−1, 48 h) [%] | Inhibition percentage against C. neoformans ATCC 32264 ([2]; 250 μg∙mL^−1, 48 h) [%] | MIC50 (minimum concentration to inhibit 50% of fungal growth), C. neoformans [2] [µg/mL] | IC50 [3] [µM] | IC50 [4] [µM] | IC50 [5] [µM] | IC50 [6] [µM] | also measured
CC(C)c1cc2c3c(c1OC(=O)CCc1cn(Cc4ccccc4)nn1)OC(=O)[C@@]31CCCC(C)(C)[C@@H]1CC2 [Compound 3, 12-O-(3-(1-benzyl-1H-1,2,3-triazol-4-yl)-propanoyloxy)-11,20-epoxyabieta-8,11,13-trien-20-one] | 5.7 ± 0.8 | 8.1 ± 0.8 | 9.1 ± 1.5 | 14.3 ± 2.0 | 20.2 ± 2.2 | 20.3 ± 3.9 | 11.1 ± 0.4 | >250 | 4.9 ± 0.5 | 9.0 ± 0.3 | 9.7 ± 0.1 | 14.3 ± 2.0 | 16.7 ± 0.5 | 18.4 ± 0.2 | 26.7 ± 1.5 | >250 | 74.1 ± 3.9 | 48.9 ± 3.9 | 73 ± 3.9 | 43.4 ± 3 | Antifungal activity against C. albicans (in words) ([1]; at the assayed concentrations (250–3.9 μg∙mL^−1)): devoid of activity; IC50 ± SD, AGS [4]: active; IC50 ± SD, MRC-5 [6]: active
CC(C)c1cc2c3c(c1OC(=O)CCCc1cn(Cc4ccccc4)nn1)OC(=O)C31CCCC(C)(C)C1CC2 (stereo not shown) [Compound 4, 12-O-(4-(1-benzyl-1H-1,2,3-triazol-4-yl)-butanoyloxy)-11,20-epoxyabieta-8,11,13-trien-20-one] | 3.7 ± 0.4 | 4.1 ± 1.7 | 9.5 ± 1.3 | 16.4 ± 2.3 | 28.2 ± 2.1 | 51.6 ± 0.1 | 10.2 ± 1.2 | 250 | 0.0 | 0.0 | 2.3 ± 1.0 | 8.5 ± 1.0 | 9.8 ± 1.1 | 17.8 ± 1.4 | 53.4 ± 2.1 | 250 | > 100 | > 100 | > 100 | > 100 | IC50 ± SD, AGS [4]: inactive; IC50 ± SD, MRC-5 [6]: inactive
CC(C)c1cc2c3c(c1OC(=O)CCc1cn(Cc4ccc(Br)cc4)nn1)OC(=O)[C@@]31CCCC(C)(C)[C@@H]1CC2 [Compound 5, 12-O-(3-(1-(4-bromobenzyl)-1H-1,2,3-triazol-4-yl)-propanoyloxy)-11,20-epoxyabieta-8,11,13-trien-20-one] | 0.0 | 0.0 | 0.0 | 4.1 ± 1.7 | 8.3 ± 3.3 | 16.5 ± 1.3 | 3.0 ± 2.7 | >250 | 2.3 ± 0.9 | 6.0 ± 0.7 | 7.7 ± 0.6 | 8.7 ± 1.4 | 12.0 ± 1.0 | 12.6 ± 0.5 | 36.9 ± 2.2 | >250 | > 100 | > 100 | > 100 | 82.6 ± 6.6 | 
CC(C)c1cc2c3c(c1OC(=O)CCCc1cn(Cc4ccc(Br)cc4)nn1)OC(=O)[C@@]31CCCC(C)(C)[C@@H]1CC2 [Compound 6, 12-O-(4-(1-(4-bromobenzyl)-1H-1,2,3-triazol-4-yl)-butanoyloxy)-11,20-epoxyabieta-8,11,13-trien-20-one] | 0.0 | 1.4 ± 0.4 | 1.5 ± 0.1 | 13.2 ± 1.4 | 19.9 ± 0.5 | 45.4 ± 3.4 | 4.2 ± 0.9 | >250 | 0.0 | 0.0 | 0.0 | 5.4 ± 0.7 | 12.7 ± 0.8 | 22.4 ± 1.5 | 41.4 ± 2.7 | >250 | > 100 | > 100 | > 100 | > 100 | 
